Assay results taken from PMC4811417, “Sulforaphane Suppresses Hepatitis C Virus Replication by Up-Regulating Heme Oxygenase-1 Expression through PI3K/Nrf2 Pathway” (PLoS ONE, 2016).
Like-named read-outs stand apart in the source and are kept apart here.

Columns and labels:
[1] = system: HCV subgenomic replicon (genotype 1b) in Ava5 cells; assay: Anti-HCV activity in HCV replicon (Ava5) cells, qRT-PCR / Western blotting; type: cell-based, Hepatitis C virus; conditions: for Selective Index (SI): CC50/EC50, Ava5 cells; for EC50: read-out: Anti-HCV activity (EC50)
Method: Huh-7, Huh7.5, Ava5 (harboring HCV subgenomic replicon; genotype 1b) and Huh7.5/J6/JFHEMCVIRESRlucNeo cells (harboring HCV subgenomic replicon RNA and renilla luciferase reporter gene; genotype 2a) obtained from Apath, LLC (St. Louis, MO) were routinely passaged in Dulbecco’s modified Eagle’s medium containing 10% heat-inactivated fetal bovine serum, 1% nonessential amino acids, and 1% antibiotic-antimycotic in a 37°C incubator with a humidified atmosphere containing 5% CO2. Sulforaphane (SFN), phenethyl isothiocyanate, benzyl isothiocyanate, benzyl isothiocyanate, butyl isothiocyanate, allyl isothiocyanate, and HO-1-specific inhibitor (tin protoporphyrin IX dichloride; SnPP) were obtained from Sigma Aldrich Co. (St. Louis, MO, USA). Biliverdin was obtained from MP Biomedicals, Inc (Santa Ana, CA, USA). […] Daclatasvir and telaprevir were obtained from Legend Stat International Co., Ltd (Omdurman, Sudan). Sofosbuvir was obtained from Shanghai Haoyuan Chemexpress Co., Ltd. (Shanghai, China). These compounds were stored at a concentration of 10 mM in 100% dimethyl sulfoxide (DMSO) at 4°C until use. All the reactions were performed using a final concentration of 0.1% DMSO.
(§1) Total cellular RNA extracted from cultured cells was purified using the Total RNA Miniprep Purification Kit (GMbiolab Co., Ltd, Taiwan). RNA samples were reverse transcribed into complementary DNA using the M-MLV Reverse Transcription System (Promega). Quantitative real-time polymerase chain reaction (qRT-PCR) was performed to assess the relative levels of gene expression using the ABI Step One Real-Time PCR-System (ABI Warrington, UK). Glyceraldehydes-3-phosphate dehydrogenase (gapdh) gene expression was used as the endogenous control for normalization in all qRT-PCR analyses. Relative expression was calculated using the comparative Ct method. Absolute quantitation of HCV RNA copies was calculated and determined relative to standard curves comprised of serial dilution of expression plasmids containing the coding sequence of HCV NS5B using RT-qPCR. The primer sequences primers for qRT-PCR were used as previously described (Table 1).
(§2) Western blotting was performed as previously described. Proteins from cell lysates were separated using SDS-PAGE and transferred onto PVDF membranes. The membranes were blocked with 5% nonfat milk in phosphate-buffered saline containing Tween 20 (PBST) and incubated overnight at 4°C with primary antibodies against GAPDH (1:10,000; GeneTex, CA, USA), NS5B (1:5,000; Abcam, Cambridge, MA, USA), Nrf2 (1:3,000; GeneTex), HO-1 (1:3,000; GeneTex), biliverdin reductase A (BVRA), Keap1 and Bach1 (1:1,000; Abcam), and total-phohphoinositide 3-kinase (PI3K) or phosphor-PI3K (1:1000; Cell Signaling Technology, Inc., Beverly, MA, USA). The immunoreactive blot signals were detected using the enhanced chemiluminescence Western blotting reagent (Perkin-Elmer, CT, USA).
To investigate the anti-HCV activity of SFN and its analogs (Fig 1A), Huh-7-derived Ava5 cells that harbor an HCV subgenomic RNA replicon were treated with increasing concentrations of SFN for 3 days. The anti-HCV activity and cytotoxicity of SFN and its analogs were analyzed by qRT-PCR and MTS assay, respectively. […] Moreover, the anti-HCV replication activity of SFN was analyzed by Western blotting and qRT-PCR.

[2] = Cell viability / cytotoxicity, MTS assay; type: cell-based; conditions: human; Ava5 cells, MTS assay; read-out: Cyto-Toxicity (CC50)
From the text: (§3) The CellTiter 96 Aqueous One Solution Cell Proliferation assay system (Promega, Madison, WI, USA), which is a colorimetric approach for the detection of the cytotoxic effect of a compound, was used to measure cell viability according to the manufacturer’s protocol. […] The absorbance values were detected at 490 nm using a 96-well plate reader (Bio-Rad, Hertfordshire, UK).

[3] = system: JFH-1 virus particle-infected Huh-7 cells; assay: Combination of SFN with antiviral drugs in HCV-infected cells (CalcuSyn2, Chou and Talalay); type: cell-based, Hepatitis C virus; conditions: JFH-1-infected Huh-7 cells; for CI values at ED75 / CI values at ED90: fixed ratio, 3 days
Method: (§4) The anti-HCV activities of the different combinations were determined by qRT-PCR. The drug combination data were analyzed using CalcuSyn2™ software (Biosoft, Cambridge, UK) based on the method by Chou and Talalay. The multiple drug dose effects and combination index (CI) values were evaluated and presented as antagonism (CI > 1), additivity (CI = 1) or synergism (CI < 1).

[4] = system: HCV subgenomic replicon in Ava5 cells; assay: Combination of SFN with antiviral drugs in replicon cells (CalcuSyn2, Chou and Talalay); type: cell-based, Hepatitis C virus; conditions: for CI values at ED75 / CI values at ED90: fixed ratio, 3 days
Method: as §4

[5] = system: Ava5 cells; assay: Cell viability / cytotoxicity, MTS assay; type: cell-based; conditions: at doses where viral replication was inhibited
From the text: as §3

[6] = system: HCV JFH-1 (genotype 2a) in Huh-7 cells; conditions: JFH-1-infected Huh-7 cells, 3 days
Method: HCV infectious particles (JFH-1; genotype 2a) were produced as previously described. HCV infection assay was used to determine the antiviral effect of SFN. Huh-7 cells were seeded in 24-well plates at a density of 5 × 10^4 cells per well and were infected with HCV for 6 h at a multiplicity of infection (MOI) of 0.1. The HCV-infected cells were treated with different concentrations (0–10μM) of SFN and incubated for 3 days, following which total RNA samples were extracted and subjected to qRT-PCR analysis for the quantification of HCV replication.

[7] = system: HO-1; conditions: Ava5 cells, 0–10 μM, 3 days
Method: as §1
Western blotting was performed as previously described. Proteins from cell lysates were separated using SDS-PAGE and transferred onto PVDF membranes. […] The immunoreactive blot signals were detected using the enhanced chemiluminescence Western blotting reagent (Perkin-Elmer, CT, USA).

[8] = system: IFN response (IFN-α, ISRE, OAS1, OAS2, OAS3, PKR)
Method: as §1

[9] = system: PI3K; conditions: Ava5 cells, 7.5 μM SFN, 15 min after treatment
Method: as §2

[10] = system: HCV JFH-1 in Huh7.5 cells
Method: The effect of SFN on HCV entry was determined according to previously described methods [22]. Briefly, Huh7.5 cells were infected with JFH-1 and treated with SFN for 1 hour at 37°C (endocytosis/fusion period). Finally, cells were washed and incubated in complete culture medium at 37°C for 45 hours. Subsequently, the cells were collected to quantify intracellular HCV RNA copy numbers. The effect of SFN on assembly and secretion were determined according to previously described methods [23]. The Huh7.5 cells were infected with JFH-1 and treated with indicated concentration of SFN. The viral supernatants and cell pellets were collected at 3 days postinfection for virus titration by qRT-PCR.
(A) Huh7.5 cells were infected with JFH-1 and treated with SFN for 1 hr at 37°C and then the infectecells were washed and incubated in complete culture medium. The intracellular HCV RNA copy numbers were quantified by qRT-PCR. The treatment of heparin served as positive control for the inhibition of HCV entry. The relative HCV entry were presented as percentage changes compared to the SFN-untreated cells, which were considered as 100%. (B) Huh7.5 cells were infected with JFH-1 and then treated with SFN for 72 hrs. The supernatant and cell lysate were collected and the HCV RNA copy numbers were quantified by qRT-PCR.

[11] = molecular target: HCV NS3/4A protease (Hepatitis C virus genotype 1b, UniProt Q9WMX2); conditions: Huh-7 cells, 0–10 μM, 3 days, compared to untreated controls; restored with SnPP
Method: The supernatants were harvested for measurement of SEAP activity by Phospha-Light assay kit (Tropix, Bedford, UK).
The culture supernatants were harvested and the SEAP activity was analyzed by Phospha-Light assay kit. Telaprevir (1 μM) and biliverdin (100 μM) served as positive controls for anti-HCV protease activity. The relative SEAP activities were presented as fold changes compared to untreated cells, in which as the activity was considered to be 1.

[12] = system: bilirubin / BVR; conditions: Ava5 cells, 3 days
Method: Intracellular bilirubin level was quantified as previously described [24]. Cells were seeded in 6-well plates at a density of 4 × 10^5 cells per well and treated with SFN at indicated concentrations for 3 days. Cell lysates were harvested and the amount of bilirubin was quantified using Calibrator for Automated Systems (c.f.a.s) (Roche Diagnostics Ltd., South San Francisco, CA, USA) and MeDiPro direct bilirubin test kit (Formosa Biomedical Technology Corp., Taipei, Taiwan). The absorbance values at 546 and 660 nm were measured using the Epoch microplate spectrophotometer (BioTek Instruments, Inc., Winooski, VT, USA).
The parental Huh-7 cells were used to determine basal bilirubin levels. […] Ava5 cells were treated with the indicated concentrations of SFN for 3 days. The expression of BVR was analyzed by qRT-PCR and Western blotting using specific primers and antibodies for BVR and GAPDH, respectively. GAPDH expression was used as protein loading control.

[13] = rats, oral dosing of 50 μmol of SFN, cited from earlier work
[14] = system: Nrf2/ARE; assay: ARE transactivation and Nrf2 expression in Ava5 cells (p3xARE-Luc, Western blotting)
[15] = Hepatitis C virus, 72 h, Ava5 cells, 3 days, HCV RNA levels by qRT-PCR

HCV NS3/4A protease, sequence (Q9WMX2 1027-1657): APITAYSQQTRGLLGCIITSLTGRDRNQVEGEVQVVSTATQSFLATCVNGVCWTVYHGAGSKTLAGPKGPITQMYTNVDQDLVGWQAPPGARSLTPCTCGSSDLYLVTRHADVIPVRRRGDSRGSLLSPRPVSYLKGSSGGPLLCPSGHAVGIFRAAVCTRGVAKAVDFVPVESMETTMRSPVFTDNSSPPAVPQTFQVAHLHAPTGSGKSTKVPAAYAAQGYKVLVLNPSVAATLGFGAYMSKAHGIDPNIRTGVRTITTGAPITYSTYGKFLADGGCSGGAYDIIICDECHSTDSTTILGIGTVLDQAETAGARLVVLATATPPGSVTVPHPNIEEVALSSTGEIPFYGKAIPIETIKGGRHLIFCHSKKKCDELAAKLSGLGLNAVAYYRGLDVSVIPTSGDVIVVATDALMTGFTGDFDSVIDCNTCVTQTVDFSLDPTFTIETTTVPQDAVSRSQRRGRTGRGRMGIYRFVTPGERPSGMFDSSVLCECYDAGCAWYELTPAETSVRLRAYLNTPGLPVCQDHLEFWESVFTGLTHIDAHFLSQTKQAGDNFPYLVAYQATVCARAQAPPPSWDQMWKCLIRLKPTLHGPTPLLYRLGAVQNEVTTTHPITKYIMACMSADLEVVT
HCV NS3/4A protease, sequence (Q9WMX2 1658-1711): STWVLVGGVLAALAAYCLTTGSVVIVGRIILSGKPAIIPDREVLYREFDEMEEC

C=CCN=C=S [Allyl isothiocyanate, allyl isothiocyanate]
Selective Index (SI) [1]: 1.5 | EC50 [1, 15]: 20 ± 2 µM | CC50 at 3 days [2]: 33 ± 3 µM

S=C=NCc1ccccc1 [Benzyl isothiocyanate, benzyl isothiocyanate]
Selective Index (SI) [1]: 3 | EC50 [1, 15]: 20 ± 2 µM | CC50 at 3 days [2]: 67 ± 2 µM

CCCCN=C=S [Butyl isothiocyanate, butyl isothiocyanate]
CC50 at 3 days [2]: 95 ± 6 µM

COC(=O)N[C@H](C(=O)N1CCC[C@H]1c1nc(-c2ccc(-c3ccc(-c4c[nH]c([C@@H]5CCCN5C(=O)[C@@H](NC(=O)OC)C(C)C)n4)cc3)cc2)c[nH]1)C(C)C [Daclatasvir]
Influence [3]: Synergistic | CI values at ED75 [3]: 0.5 | CI values at ED90 [3]: 0.4 | Influence [4]: Synergistic | CI values at ED75 [4]: 0.5 | CI values at ED90 [4]: 0.4

S=C=NCCc1ccccc1 [Phenethyl isothiocyanate, phenethyl isothiocyanate]
EC50 ([1]; Hepatitis C virus, Ava5, 72 h): 2.5 ± 0.5 µM | CC50 at 3 days [2]: 10 ± 1.5 µM

CC(C)OC(=O)[C@H](C)N[P@](=O)(OC[C@H]1O[C@@H](n2ccc(=O)[nH]c2=O)[C@](C)(F)[C@@H]1O)Oc1ccccc1 [Sofobuvir, sofosbuvir]
Influence [3]: Synergistic | CI values at ED75 [3]: 0.5 | CI values at ED90 [3]: 0.4 | Influence [4]: Synergistic | CI values at ED75 [4]: 0.5 | CI values at ED90 [4]: 0.4

C[S+]([O-])CCCCN=C=S (stereo not shown) [Sulforaphane]
inhibition of viral replication ([1]; 10 μM SFN, Ava5 cells, 3 days, compared to SFN-untreated cells): 90% | HCV protein synthesis and RNA replication ([1]; Ava5 cells, 0–10 μM, 3 days, concentration-dependent): significantly reduced | Selective Index (SI) [1]: ~10 | EC50 ([1]; Hepatitis C virus, Ava5, 72 h): 5 ± 1.5 µM | IC50 ([1]; Hepatitis C virus, Ava5, HCV replicon cells and infectious system, read-out: IC50 value, suppression of HCV protein and RNA levels): 5.7 ± 0.2 µM | CC50 at 3 days [2]: 52 ± 3 µM | cytotoxicity (cell viability by MTS assay) [5]: did not induce significant cytotoxicity | antiviral activity in the HCV JFH-1 infection system [6]: exhibited antiviral activity | HO-1 RNA and protein levels [7]: significantly increased | IFN-α2 and IFN-α17 expression ([8]; Ava5 cells, 3 days, qRT-PCR, attenuated with SnPP): significantly induced | IFN-α levels in culture supernatants ([8]; Ava5 cells, ELISA, effective antiviral concentrations, attenuated by SnPP): significantly increased | expression of IFN response genes (OAS1, OAS2, OAS3, PKR) ([8]; Ava5 cells, qRT-PCR, attenuated by SnPP): significantly induced | ISRE-mediated luciferase activity ([8]; pISRE-Luc-transfected Ava5 cells, 3 days, attenuated with SnPP): significant induction | phosphorylation of PI3K [9]: significantly induced | inhibition on viral entry ([10]; Huh7.5 cells infected with JFH-1, SFN 1 hour): no significant inhibition | inhibition on viral assembly ([10]; Huh7.5 cells infected with JFH-1, SFN 3 days): no significant inhibition | HCV protease activity (SEAP) [11]: significantly decreased | bilirubin levels ([12]; 0–10 μM): significant increase | BVR RNA or protein levels [12]: did not detect any significant changes | plasma concentration ([13]; reached within 4h): around 20 μM | elimination half-life [13]: 2.2 h | time at which plasma concentration of SFN occurred [13]: 1 h | protein levels of Keap1 and Bach1 ([14]; Ava5 cells): did not observe significant changes | expression of Nrf2 in cytoplasmic and nuclear fractions ([14]; Ava5 cells, concentration-dependent): significant increase | ARE-mediated luciferase activity ([14]; p3xARE-Luc-transfected Ava5 cells, 3 days, effective antiviral concentrations): significantly increased

CCC[C@H](NC(=O)[C@@H]1[C@H]2CCC[C@H]2CN1C(=O)[C@@H](NC(=O)[C@@H](NC(=O)c1cnccn1)C1CCCCC1)C(C)(C)C)C(=O)C(=O)NC1CC1 [Telapriver, telaprevir]
Influence [3]: Synergistic | CI values at ED75 [3]: 0.6 | CI values at ED90 [3]: 0.5 | Influence [4]: Synergistic | CI values at ED75 [4]: 0.7 | CI values at ED90 [4]: 0.6
